Test results as given in US7662825B2, “N-pyrazinyl-phenylsulphonamides and their use in the treatment of chemokine mediated diseases” (AstraZeneca AB, priority 2002, dated 2010).

Columns and labels:
[1] = target: T1, human recombinant CCR4 receptor (Homo sapiens, UniProt P51679); assay: FMAT whole cell binding assay (FB-MDC binding to cells); conditions: CHO-K1 cells stably expressing human recombinant CCR4; inhibition of binding of fluorescent FB-MDC, two hours at room temperature
T1 construct: host or cells: CHO-K1
T1 sequence (P51679 1-360): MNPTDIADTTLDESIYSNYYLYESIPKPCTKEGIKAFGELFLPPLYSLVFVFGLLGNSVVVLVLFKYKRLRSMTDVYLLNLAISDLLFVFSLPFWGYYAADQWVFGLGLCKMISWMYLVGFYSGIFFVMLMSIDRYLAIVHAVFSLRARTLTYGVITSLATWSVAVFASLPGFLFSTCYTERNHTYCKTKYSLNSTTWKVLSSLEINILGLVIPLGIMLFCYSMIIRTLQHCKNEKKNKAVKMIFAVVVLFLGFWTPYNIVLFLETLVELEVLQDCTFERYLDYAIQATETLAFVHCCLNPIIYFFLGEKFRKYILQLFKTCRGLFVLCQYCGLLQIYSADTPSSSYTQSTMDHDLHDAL
Procedure: FMAT Whole Cell Binding Assay
CHO—K1 cells stably expressing the human recombinant CCR4 receptor (Euroscreen; Brussels, Belgium) were cultured in NUT.MIX.F—12(HAM) medium with glutamax-1, containing 10% (v/v) foetal bovine serum and 400 μg ml^−1 geneticin.
Cells were harvested at approximately 70% confluence by treatment with a cell dissociation buffer, and seeded at 5×10^3 cells/100 μl culture medium into wells of a black Costar clear-bottomed 96-well microtitre plates. Plates were incubated overnight at 37° C. in 5% CO2 and used the following day.
Before use, the cell plates were washed twice with 100 μl Hanks balanced salt solution (HBSS). To each well was then added 65 μl of HBSS, 10 μL of 10% DMSO in HBSS±test compound and then 25 μL of 2.8 nM FB-MDC (Applied Biosystems). This fluorescent probe was prepared from a 10 μM stock in 0.08% (v/v) TFA/16% (v/v) acetonitrile, diluted into HBSS.
After two hours incubation in the dark at room temperature, the plates were analysed in an FMAT8100 reader (Applied Biosystems) to measure fluorescence that was associated with binding of FB-MDC to the cells.

Compound	IC50 [1] [µM]	melting point [°C]
COC(=O)c1nc(OC)c(NS(=O)(=O)c2cccc(Cl)c2Cl)nc1C [Example 119, 5-(2,3-Dichlorobenzenesulphonylamino)-6-methoxy-3-methylpyrazine-2-carboxylic aicd, methyl ester]	0.0631	149 to 150
COc1nc(CN2CCOCC2)cnc1NS(=O)(=O)c1cccc(Cl)c1Cl [Example 186, 2,3-Dichloro-N-[3-methoxy-5-(4-morpholinylmethyl)-2-pyrazinyl]benzenesulphonamide]	0.631	
C#CCOc1cnc(NS(=O)(=O)c2cccc(Cl)c2Cl)c(OC)n1 [Example 198, 2,3-Dichloro-N-[3-methoxy-5-(2-propyn-1-yloxy)-2-pyrazinyl]benzenesulphonamide]		110 to 112
COC(=O)COc1cnc(NS(=O)(=O)c2cccc(Cl)c2Cl)c(OC)n1 [Example 199, {[5-(2,3-Dichlorophenylsulfonylamino)-6-methoxy-2-pyrazinyl]oxy}acetic acid, methyl ester]		185 to 190
COC(=O)c1cnc(OC)c(NS(=O)(=O)c2cccc(Cl)c2Cl)n1 [Example 201, 6-(2,3-Dichlorophenylsulphonylamino)-5-methoxy-2-pyrazinecarboxylic acid, methyl ester]		90 to 92
COc1ncc(CO)nc1NS(=O)(=O)c1cccc(Cl)c1Cl [Example 202, 2,3-Dichloro-N-[6-(hydroxymethyl)-3-methoxy-2-pyrazinyl]benzenesulphonamide]		153 to 155
COc1nc(S(C)(=O)=O)cnc1NS(=O)(=O)c1cccc(Cl)c1Cl [Example 203, 2,3-Dichloro-N-(5-methanesulphonyl-3-methoxy-2-pyrazinyl)benzenesulphonamide]		237 to 238
CCN(CC)C(=O)COc1cnc(NS(=O)(=O)c2cccc(Cl)c2Cl)c(OC)n1 [Example 204, 2-[5-(2,3-Dichlorobenzenesulphonylamino)-6-methoxy-2-pyrazinyloxy]-N,N-diethyl-acetamide]		117 to 118
COc1nc(SCCN(C)C)cnc1NS(=O)(=O)c1cccc(Cl)c1Cl [Example 205, 2,3-Dichloro-N-{5-[2-(dimethylamino)ethylsulphanyl]-3-methoxy-2-pyrazinyl]benzenesulphonamide]		117 to 118
COc1nc(C(F)F)cnc1NS(=O)(=O)c1cccc(Cl)c1Cl [Example 206, 2,3-Dichloro-N-(5-difluoromethyl-3-methoxy-2-pyrazinyl)benzenesulphonamide]		117 to 118
COc1nccnc1NS(=O)(=O)c1ccc(F)c(Cl)c1Cl [Example 207, 2,3-Dichloro-4-fluoro-N-(3-methoxy-2-pyrazinyl)benzenesulphonamide]		192 to 194

More lines, now with the values ahead:

IC50 [1] [µM]	melting point [°C]	Compound
	201 to 202	NCc1ccc(COc2nc(Cl)cnc2NS(=O)(=O)c2cccc(Cl)c2Cl)o1 [Example 196, N-(3-(5-Aminomethyl-2-furanylmethoxy)-5-chloro-2-pyrazinyl)-2,3-dichloro-benzenesulphonamide]
	199 to 201	NCc1ccc(COc2nccnc2NS(=O)(=O)c2cccc(Cl)c2Cl)o1 [Example 197, N-(3-(5-Aminomethyl-2-furanylmethoxy)-2-pyrazinyl)-2,3-dichlorobenzenesulphonamide]
	153 to 155	COc1nc(NC(=O)CO)cnc1NS(=O)(=O)c1cccc(Cl)c1Cl [Example 200, N-[5-(2,3-Dichlorophenylsulphonylamino)-6-methoxy-2-pyrazinyl]-2-hydroxyacetamide]
	161 to 162	CC(Oc1nc(Cl)cnc1NS(=O)(=O)c1cccc(Cl)c1Cl)C1CC1 (stereo not drawn) [Example 208]
	175 to 176	O=S(=O)(Nc1ncc(Cl)nc1OCc1ccc(CNC2CC2)o1)c1cccc(Cl)c1Cl [Example 210, 2,3-Dichloro-N-[5-chloro-3-(5-cyclopropylaminomethyl-2-furanylmethoxy)-2-pyrazinyl]-benzenesulphonamide]
	137	Nc1nc(COc2nc(Cl)cnc2NS(=O)(=O)c2cccc(Cl)c2Cl)co1 [Example 212, N-[3-[(2-amino-4-oxazolyl)methoxy]-5-chloro-2-pyrazinyl]-2,3-dichlorobenzenesulphonamide]
